These results are taken from patent US8410310B2, “Trypsin-like serine protease inhibitors, and their preparation and use” (The Medicines Company (Leipzig) GmbH, priority 2006, dated 2013).

Common to all, as to type: biochemical
One experiment has as its target Xa (Homo sapiens, UniProt P00742). Briefly: Determination of inhibition constants for Xa. Summed up:
(§1)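 Chromogenic assays measured absorbance at 405 nm: zero-order reactions were stopped with acetic acid after 20 min, and pseudo-first-order rates were recorded kinetically at equilibrium. Ki was obtained by Dixon linear regression or by fitting to the competitive-inhibition rate equation, averaging at least two determinations.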

A further experiment deals with Thrombin (Homo sapiens, UniProt P00734). Briefly: Determination of inhibition constants for thrombin. The method in brief:
as §1

Experiment [1] deals with T1, Human factor XIIa (alpha) (Homo sapiens, UniProt P00748).
T1 construct: Human factor Xa, factor XIa, factor XIIa, thrombin, and plasma kallikrein were purchased; purchased Enzyme Research Laboratories (via Haemochrom, Essen)
T1 sequence (P00748 373-615 limits assumed): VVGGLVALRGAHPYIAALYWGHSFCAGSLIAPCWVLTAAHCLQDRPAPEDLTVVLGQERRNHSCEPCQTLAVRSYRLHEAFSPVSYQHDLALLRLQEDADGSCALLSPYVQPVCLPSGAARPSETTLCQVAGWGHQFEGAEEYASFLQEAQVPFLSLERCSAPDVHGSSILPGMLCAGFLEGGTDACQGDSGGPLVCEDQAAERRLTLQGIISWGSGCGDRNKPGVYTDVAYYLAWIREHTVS
T1 sequence (P00748 20-372 partner limits assumed): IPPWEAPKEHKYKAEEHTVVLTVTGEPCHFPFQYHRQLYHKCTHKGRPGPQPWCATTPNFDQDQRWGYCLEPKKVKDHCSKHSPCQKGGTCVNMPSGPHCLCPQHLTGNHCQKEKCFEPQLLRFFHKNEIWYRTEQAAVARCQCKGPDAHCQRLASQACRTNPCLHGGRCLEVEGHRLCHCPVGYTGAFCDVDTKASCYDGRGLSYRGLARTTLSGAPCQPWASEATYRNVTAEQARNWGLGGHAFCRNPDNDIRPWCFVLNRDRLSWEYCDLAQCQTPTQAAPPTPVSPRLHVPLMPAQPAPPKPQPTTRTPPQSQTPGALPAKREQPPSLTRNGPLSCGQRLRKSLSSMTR
Briefly: Inhibition constants against purified human serine proteases: FXIIa. As to conditions: 50 mM Tris-HCl pH 8.0, 154 mM NaCl, Chromozym XII. The source says: (§2) Aprotinin and tranexamic acid were purchased from SIGMA (Schnelldorf, Germany). Human factor Xa, factor XIa, factor XIIa, thrombin, and plasma kallikrein were purchased from Enzyme Research Laboratories, and human plasmin from Chromogenix (both via Haemochrom, Essen, Germany). Various synthetic peptide chromogenic substrates used for determination of inhibition constants were obtained from Pentapharm (Basel, Switzerland), Roche (Mannheim, Germany), and Chromogenix: Chromozyme PL for plasmin, S2302 for plasma kallikrein, Pefachrome FXa for factor Xa, Chromozym XII for FXIIa, Pefachrom tPA for thrombin, and Pefachrome PCa for factor XIa. […]
(§3) Inhibition of purified human serine proteases by Compound No. 3 and aprotinin was studied using the established methods described herein in Example 3 (i.e., Stürzebecher et al., 1997). […] Steady-state velocities of substrate conversion were obtained from progress curves generated by continuous monitoring of the absorbance at 405 nm with a microplate reader (Multiskan Ascent, Thermo Electron Corporation, Dreieich, Germany). […] Inhibition constants (Ki) were calculated from non-linear fits of individual data sets to the Michaelis-Menten equation for competitive inhibitors using an enzyme kinetic analysis software (SIGMA Plot® 9.0 Enzyme Kinetics Module, SSI, San Jose, Calif.). […]

The next experiment has as its target plasmin (Homo sapiens, UniProt P00747). Put plainly: Inhibition constants against purified human serine proteases: plasmin. Also on record: purchased Calbiochem. As to conditions: 50 mM Tris-HCl pH 8.0, 154 mM NaCl, Chromozyme PL.
Text: as §2, §3

A further experiment concerns the target plasma kallikrein (Homo sapiens, UniProt P03952). Put plainly: Inhibition constants against purified human serine proteases: plasma kallikrein. Also on record: purchased Enzyme Research Lab. / Enzyme Research Laboratories.
Text: as §2, §3

The structures appear in SMILES notation. Where “and” joins values, the source holds several entries; their conditions need not be identical. Equal entries are not always repeated.

As a reminder, the Ki is the dissociation constant of the complex between target and ligand, obtained from inhibition or displacement. A lower Ki goes with tighter binding.

Chain of plasmin (P00747 581-810 limits assumed): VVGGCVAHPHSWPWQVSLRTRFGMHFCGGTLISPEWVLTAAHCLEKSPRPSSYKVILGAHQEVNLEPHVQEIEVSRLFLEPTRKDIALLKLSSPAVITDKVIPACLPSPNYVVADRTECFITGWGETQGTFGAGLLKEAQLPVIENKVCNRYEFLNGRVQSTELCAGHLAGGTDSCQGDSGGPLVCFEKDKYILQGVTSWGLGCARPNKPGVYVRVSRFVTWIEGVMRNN
Chain of plasmin (P00747 97-580 partner limits assumed): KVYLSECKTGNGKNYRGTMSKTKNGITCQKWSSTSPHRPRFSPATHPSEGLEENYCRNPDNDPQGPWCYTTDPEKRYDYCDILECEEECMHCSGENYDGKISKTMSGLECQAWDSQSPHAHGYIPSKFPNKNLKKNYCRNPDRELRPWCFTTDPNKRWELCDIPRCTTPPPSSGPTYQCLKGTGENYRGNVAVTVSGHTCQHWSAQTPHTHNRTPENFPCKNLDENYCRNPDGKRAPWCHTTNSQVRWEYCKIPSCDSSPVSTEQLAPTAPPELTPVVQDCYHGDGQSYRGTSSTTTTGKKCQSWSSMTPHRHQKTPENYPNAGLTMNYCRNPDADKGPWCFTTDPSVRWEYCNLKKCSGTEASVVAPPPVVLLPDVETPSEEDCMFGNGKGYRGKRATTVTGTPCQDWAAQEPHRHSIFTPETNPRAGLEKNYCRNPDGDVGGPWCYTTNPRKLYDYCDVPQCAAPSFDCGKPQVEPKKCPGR
Chain of plasma kallikrein (P03952 391-638 limits assumed): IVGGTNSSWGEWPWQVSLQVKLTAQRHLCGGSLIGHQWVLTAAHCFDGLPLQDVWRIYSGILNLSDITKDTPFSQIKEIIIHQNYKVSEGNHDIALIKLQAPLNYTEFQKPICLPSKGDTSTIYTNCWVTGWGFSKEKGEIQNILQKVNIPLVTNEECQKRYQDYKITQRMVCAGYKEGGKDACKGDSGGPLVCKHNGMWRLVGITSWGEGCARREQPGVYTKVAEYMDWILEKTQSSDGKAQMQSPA
Chain of plasma kallikrein (P03952 20-390 partner limits assumed): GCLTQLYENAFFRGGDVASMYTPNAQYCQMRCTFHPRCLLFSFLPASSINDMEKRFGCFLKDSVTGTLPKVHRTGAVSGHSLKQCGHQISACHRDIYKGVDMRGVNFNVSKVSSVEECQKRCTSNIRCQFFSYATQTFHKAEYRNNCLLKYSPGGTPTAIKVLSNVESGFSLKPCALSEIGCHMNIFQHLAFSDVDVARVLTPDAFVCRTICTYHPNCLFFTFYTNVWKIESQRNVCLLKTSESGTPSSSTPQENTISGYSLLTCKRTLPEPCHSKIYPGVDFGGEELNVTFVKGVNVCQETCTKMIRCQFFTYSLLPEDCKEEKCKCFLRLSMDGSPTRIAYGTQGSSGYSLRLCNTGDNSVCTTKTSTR
Chain of Xa (P00742 235-488 limits assumed): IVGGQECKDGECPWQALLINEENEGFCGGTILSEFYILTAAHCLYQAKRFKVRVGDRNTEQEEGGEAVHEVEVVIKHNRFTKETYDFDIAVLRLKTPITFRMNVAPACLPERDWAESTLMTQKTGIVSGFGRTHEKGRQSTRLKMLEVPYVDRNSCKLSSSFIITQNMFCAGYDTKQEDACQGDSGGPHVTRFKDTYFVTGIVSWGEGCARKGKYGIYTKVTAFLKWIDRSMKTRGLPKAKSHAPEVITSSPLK
Chain of Xa (P00742 41-179 limits assumed): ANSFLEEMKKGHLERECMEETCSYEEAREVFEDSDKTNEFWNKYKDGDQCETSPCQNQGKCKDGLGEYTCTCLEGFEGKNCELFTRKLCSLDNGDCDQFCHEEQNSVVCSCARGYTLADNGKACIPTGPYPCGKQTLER

For the compound `N=C(N)c1ccc(CNC(=O)[C@H](Cc2cccc(CN)c2)NC(=O)[C@@H](CCCc2ccccc2)NS(=O)(=O)Cc2cccc(C(=O)O)c2)cc1` [compound 3, 3-HOOC-Bzls-d-Ppg-Phe(3-Ame)-4-Amba×2 acetate], the Ki on Xa is under 100 nM; on Thrombin, over 1000 nM; in experiment [1], 5200 ± 400 nM; on plasmin, 2.3 nM and 2.2 nM; on plasma kallikrein (50 mM Tris-HCl pH 8.0, 154 mM NaCl, S2302), 0.019 ± 0.003 nM. In addition, the “stronger inhibition of plasma kallikrein than aprotinin” value on plasma kallikrein (versus aprotinin) is reported as 2000 fold.
